Source: PubChem BioAssay (NCI)
Values joined by “and” are separate entries in the source; they are usually repeats but may differ in a detail not shown here. Identical values can stand only once.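 Method: 48-hour compound exposure of cells in 96-well plates, five concentrations, linear interpolation of endpoints. The concentration for 50% growth inhibition is given as GI50. TGI is the concentration that stops growth completely.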

Columns and labels:
Test in all cases: growth of human tumour cells (NCI), 48 h
[1] = tested on: HS 578T breast
[2] = tested on: RXF 393 renal
[3] = tested on: HL-60(TB) leukemia
[4] = tested on: RPMI-8226 leukemia
[5] = tested on: SK-MEL-5 melanoma
[6] = tested on: SNB-75 CNS
[7] = tested on: LOX IMVI melanoma
[8] = tested on: SK-OV-3 ovarian
[9] = tested on: NCI-H226 lung
[10] = tested on: MCF7 breast
[11] = tested on: CAKI-1 renal
[12] = tested on: ACHN renal
[13] = tested on: M14 melanoma
[14] = tested on: PC-3 prostate
[15] = tested on: UACC-62 melanoma
[16] = tested on: SF-539 CNS
[17] = tested on: SN12C renal
[18] = tested on: OVCAR-8 ovarian
[19] = tested on: HCT-15 colon
[20] = tested on: SF-268 CNS
[21] = tested on: U251 CNS
[22] = tested on: HT29 colon
[23] = tested on: OVCAR-5 ovarian
[24] = tested on: HCT-116 colon
[25] = tested on: NCI-H522 lung
[26] = tested on: UO-31 renal
[27] = tested on: BT-549 breast
[28] = tested on: SW-620 colon
[29] = tested on: CCRF-CEM leukemia
[30] = tested on: EKVX NSCLC
[31] = tested on: HOP-62 NSCLC
[32] = tested on: A498 renal
[33] = tested on: IGROV1 ovarian
[34] = tested on: SF-295 CNS
[35] = tested on: MDA-MB-231 breast
[36] = tested on: A549 NSCLC
[37] = tested on: T-47D breast
[38] = tested on: UACC-257 melanoma
[39] = tested on: OVCAR-3 ovarian
[40] = tested on: TK-10 renal
[41] = tested on: SK-MEL-2 melanoma
[42] = tested on: K-562 leukemia
[43] = tested on: MDA-MB-435
[44] = tested on: NCI-H23 lung
[45] = tested on: MOLT-4 leukemia
[46] = tested on: KM12 colon
[47] = tested on: NCI-H460 lung
[48] = tested on: HCC-2998 colon
[49] = tested on: SR leukemia
[50] = tested on: HOP-92 NSCLC
[51] = tested on: DU-145 prostate
[52] = tested on: OVCAR-4 ovarian
[53] = tested on: COLO 205 colon
[54] = tested on: SK-MEL-28 melanoma
[55] = tested on: SNB-19 CNS
[56] = tested on: NCI/ADR-RES ovarian
[57] = tested on: 786-0 renal
[58] = tested on: MALME-3M melanoma
[59] = tested on: MDA-N

`COC(=O)/C=C/c1cc(O)c2c(c1)C(C(=O)OC)C(c1ccc(O)c(O)c1)O2` (stereo not given) was tested, and the GI50 [1] was 0.468 µM and 0.0614 µM, the TGI [1] was over 100 µM and the GI50 [2] was 0.0472 µM. For the same compound, the TGI [2] was 86.4 µM and > 100 µM, the GI50 [3] was 0.0845 µM and 0.0298 µM and the TGI [3] was 0.164 µM and 0.106 µM. For the same compound, the GI50 [4] was 0.132 µM, the TGI [4] was 16.5 µM and 10.5 µM and the GI50 [5] was < 0.0455 µM and 0.0566 µM. For the same compound, the TGI [5] was 5.45 µM and 4.29 µM, the TGI [6] was > 49.7 µM and 64.2 µM and the GI50 [7] was 0.17 µM and 0.0633 µM. For the same compound, the TGI [7] was 36 µM and > 67.1 µM, the GI50 [8] was 1 µM and 0.585 µM and the TGI [8] was 71.7 µM and 35.7 µM. For the same compound, the GI50 [9] was 2.93 µM and 3.86 µM, the TGI [9] was 24.3 µM and > 100 µM and the GI50 [10] was 0.0337 µM. For the same compound, the TGI [10] was 82.1 µM and > 100 µM, the GI50 [11] was 0.644 µM and 0.393 µM and the TGI [11] was over 100 µM. The GI50 [12] was 0.183 µM and 0.0676 µM, the TGI [12] was 43.6 µM and > 82.3 µM and the GI50 [13] was 0.131 µM and 0.0279 µM. For the same compound, the TGI [13] was over 41.3 µM, the GI50 [14] was 0.573 µM and 0.817 µM and the TGI [14] was 69 µM and 65.8 µM. For the same compound, the GI50 [15] was 0.0678 µM, the TGI [15] was 4.56 µM and 27.9 µM and the GI50 [16] was 0.255 µM. The TGI [16] was 0.72 µM and 1.19 µM, the GI50 [17] was 0.614 µM and the TGI [17] was over 100 µM. For the same compound, the GI50 [18] was 0.526 µM and 0.0809 µM, the TGI [18] was > 54.9 µM and 12 µM and the GI50 [19] was 0.0991 µM. For the same compound, the TGI [19] was 68.8 µM and > 100 µM, the GI50 [20] was 0.721 µM and 0.0833 µM and the TGI [20] was over 89.8 µM. The GI50 [21] was 0.116 µM, the TGI [21] was 46.2 µM and 23.2 µM and the GI50 [22] was 3.89 µM and 1.75 µM. For the same compound, the TGI [22] was > 57.6 µM and 24.1 µM, the GI50 [23] was 4.28 µM and 2.95 µM and the TGI [23] was over 100 µM. For the same compound, the GI50 [24] was 0.104 µM and 0.0405 µM, the TGI [24] was over 100 µM and the GI50 [25] was 0.0286 µM. The TGI [25] was 3.45 µM and 0.379 µM, the GI50 [26] was 0.855 µM and 0.301 µM and the TGI [26] was 23.6 µM and 30.7 µM. For the same compound, the GI50 [27] was 0.127 µM and 0.103 µM, the TGI [27] was 39.8 µM and 5.39 µM and the GI50 [28] was 0.108 µM. For the same compound, the TGI [28] was over 100 µM, the GI50 [29] was 0.0892 µM and the TGI [29] was 22.5 µM and > 100 µM. For the same compound, the GI50 [30] was 0.851 µM and 0.418 µM, the TGI [30] was 78.5 µM and > 100 µM and the GI50 [31] was 0.493 µM and 0.137 µM. The TGI [31] was > 72.4 µM and 46.5 µM, the GI50 [32] was 2.85 µM and 0.735 µM and the TGI [32] was 16.3 µM and 6.21 µM. For the same compound, the GI50 [33] was 0.822 µM and 0.509 µM, the TGI [33] was 33.8 µM and > 79.5 µM and the GI50 [34] was 0.344 µM and 0.143 µM. The TGI [34] was 15.4 µM and 9.85 µM, the GI50 [35] was 0.192 µM and 0.308 µM and the TGI [35] was 18.2 µM and 47.1 µM. The GI50 [36] was 4.95 µM and 1.11 µM, the TGI [36] was 61.9 µM and 23.7 µM and the GI50 [37] was 1.55 µM. The TGI [37] was 57.9 µM, the GI50 [38] was 11.5 µM and 4.5 µM and the TGI [38] was 63.3 µM and 48.7 µM. For the same compound, the GI50 [39] was under 0.0488 µM, the GI50 [40] was 5.24 µM and 1.27 µM and the TGI [40] was 67.5 µM and > 23.5 µM. The GI50 [41] was 0.454 µM and 0.093 µM, the TGI [41] was 35.2 µM and > 55 µM and the GI50 [42] was < 0.0419 µM and 0.0462 µM. The TGI [42] was over 100 µM, the TGI [43] was 0.0513 µM and the GI50 [44] was 0.134 µM and 0.075 µM. For the same compound, the TGI [44] was 54.7 µM and > 100 µM, the GI50 [45] was 0.12 µM and 0.0553 µM and the TGI [45] was 25.3 µM and 27.8 µM. The GI50 [46] was 0.395 µM, the TGI [46] was 20.7 µM and 16.6 µM and the GI50 [47] was 1.46 µM and 0.363 µM. For the same compound, the TGI [47] was 12.3 µM and 12.1 µM, the GI50 [48] was 1.53 µM and 0.558 µM and the TGI [48] was 72.7 µM and > 46.9 µM. The GI50 [49] was 0.051 µM and 0.0369 µM, the TGI [49] was > 54.9 µM and 6 µM and the TGI [50] was > 55 µM and 9.3 µM. For the same compound, the GI50 [51] was 0.372 µM and 0.053 µM, the TGI [51] was over 100 µM and the GI50 [52] was 0.34 µM and 0.353 µM. The TGI [52] was 62.2 µM and > 75.9 µM, the GI50 [53] was 4.19 µM and 2.49 µM and the TGI [53] was 29 µM and 12.3 µM. For the same compound, the TGI [54] was 60.8 µM and > 100 µM, the GI50 [55] was 0.131 µM and 0.0868 µM and the TGI [55] was over 100 µM. For the same compound, the GI50 [56] was 0.11 µM and 0.0614 µM, the TGI [56] was over 100 µM and the GI50 [57] was 0.626 µM. The TGI [57] was over 56.3 µM, the GI50 [58] was 12.5 µM and 17.7 µM and the TGI [58] was 62 µM and 86.1 µM.
`C=C[C@@H]1OC(=O)O[C@H]1CO` showed a TGI [1] of over 100 µM, a TGI [4] of over 100 µM and a TGI [5] of over 100 µM. For the same compound, the TGI [6] was over 100 µM, the TGI [7] was over 100 µM and the TGI [8] was over 100 µM. For the same compound, the TGI [9] was over 100 µM, the TGI [10] was over 100 µM and the TGI [12] was over 100 µM. It also gave a TGI [13] of over 100 µM, a TGI [14] of over 100 µM and a TGI [15] of over 100 µM. For the same compound, the TGI [17] was over 100 µM, the TGI [18] was over 100 µM and the TGI [19] was over 100 µM. It also gave a TGI [20] of over 100 µM, a TGI [21] of over 100 µM and a TGI [22] of over 100 µM. It also gave a TGI [23] of over 100 µM, a TGI [24] of over 100 µM and a TGI [26] of over 100 µM. The TGI [28] was over 100 µM, the TGI [29] was over 100 µM and the TGI [30] was over 100 µM. For the same compound, the TGI [31] was over 100 µM, the TGI [32] was over 100 µM and the TGI [33] was over 100 µM. For the same compound, the TGI [34] was over 100 µM, the TGI [35] was over 100 µM and the TGI [36] was over 100 µM. For the same compound, the TGI [38] was over 100 µM, the TGI [39] was over 100 µM and the TGI [40] was over 100 µM. For the same compound, the TGI [41] was over 100 µM, the TGI [42] was over 100 µM and the TGI [43] was over 100 µM. For the same compound, the TGI [44] was over 100 µM, the TGI [45] was over 100 µM and the TGI [46] was over 100 µM. For the same compound, the TGI [59] was over 100 µM, the TGI [49] was over 100 µM and the TGI [51] was over 100 µM. The TGI [52] was over 100 µM, the TGI [53] was over 100 µM and the TGI [54] was over 100 µM. For the same compound, the TGI [55] was over 100 µM, the TGI [56] was over 100 µM and the TGI [57] was over 100 µM. The TGI [58] was over 100 µM.
